Measurements: patent US6525001B1, “Substituted pyrimidine and pyridine herbicides” (Mid-American Commercialization Corporation, priority 1997, dated 2003)

Legend:
Format in all cases: in vivo
Set-up in all cases: key: 0 is no effect; 10 is complete control
[1] = system: rice (Oryza sativa); assay: Test B flood test
Summary of the method: (§1)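 Each value is a visual injury score relative to controls, with 10 meaning complete control and 0 no effect. Evaluation took place twelve to sixteen days after the 2-leaf-stage plants were treated and kept in the greenhouse.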

[2] = system: bamyardgrass (Echinochloa crus-galli); assay: Test B flood test
Summary of the method: as §1

[3] = system: smallflower flatsedge (Cyperus difformis); assay: Test B flood test
Summary of the method: as §1

[4] = system: duck salad (Heteranthera limosa); assay: Test B flood test
Summary of the method: as §1

[5] = system: crabgrass (Digitaria sanguinalis); assay: Test B pre-/postemergence
Source text: (§2) Seeds of bedstraw (Galium aparine), blackgrass (Alopecurus myosuroides), broadleaf signalgrass (Brachiaria decumbens), cocklebur (Xanthium strumarium), corn (Zea mays), crabgrass (Digitaria sanguinalis), giant foxtail (Setaria faberii), lambsquarters (Chenopodium album), momingglory (Ipomoea hederacea), pigweed (Amaranthus retroflexus), rape (Brassica napus), soybean (Glycine max), sugar beet (Beta vulgaris), velvetleaf (Abutilon theophrasti), wheat (Triticum aestivum), wild oat (Avena fatua) and purple nutsedge (Cyperus rotundus) tubers were planted and treated preemergence with test chemicals formulated in a non-phytotoxic solvent mixture which included a surfactant.
(§3) At the same time, these crop and weed species were also treated with postemergence applications of test chemicals formulated in the same manner. Plants ranged in height from 2 to 18 cm (1- to 4-leaf stage) for postemergence treatments. Plant species in the flood test consisted of rice (Oryza sativa), smallflower flatsedge (Cyperus difformis), duck salad (Heteranthera limosa) and bamyardgrass (Echinochloa crus-galli) grown to the 2-leaf stage for testing. Treated plants and controls were maintained in a greenhouse for twelve to sixteen days, after which all species were compared to controls and visually evaluated. Plant response ratings, summarized in Table B, are based on a scale of 0 to 10 where 0 is no effect and 10 is complete control. A dash (−) response means no test result.

[6] = system: broadleaf signalgrass (Brachiaria decumbens); assay: Test B pre-/postemergence
Source text: as §2, §3

[7] = system: momingglory (Ipomoea hederacea); assay: Test B pre-/postemergence
Source text: as §2, §3

[8] = system: sugar beet (Beta vulgaris); assay: Test B pre-/postemergence
Source text: as §2, §3

[9] = system: corn (Zea mays); assay: Test B pre-/postemergence
Source text: as §2, §3

[10] = system: wheat (Triticum aestivum); assay: Test B pre-/postemergence
Source text: as §2, §3

[11] = system: bedstraw (Galium aparine); assay: Test B pre-/postemergence
Source text: as §2, §3

[12] = system: purple nutsedge (Cyperus rotundus); assay: Test B pre-/postemergence
Source text: as §2, §3

[13] = system: wild oat (Avena fatua); assay: Test B pre-/postemergence
Source text: as §2, §3

[14] = system: rape (Brassica napus); assay: Test B pre-/postemergence
Source text: as §2, §3

[15] = system: soybean (Glycine max); assay: Test B pre-/postemergence
Source text: as §2, §3

[16] = system: blackgrass (Alopecurus myosuroides); assay: Test B pre-/postemergence
Source text: as §2, §3

[17] = system: cocklebur (Xanthium strumarium); assay: Test B pre-/postemergence
Source text: as §2, §3

[18] = system: giant foxtail (Setaria faberii); assay: Test B pre-/postemergence
Source text: as §2, §3

[19] = system: velvetleaf (Abutilon theophrasti); assay: Test B pre-/postemergence
Source text: as §2, §3

[20] = system: pigweed (Amaranthus retroflexus); assay: Test B pre-/postemergence
Source text: as §2, §3

[21] = Rate 62 g/ha, Postemergence (flood test)
[22] = Rate 125 g/ha, Postemergence, flood test
[23] = Rate 250 g/ha, Postemergence (flood test species)

## Cc1cnc(-c2ccc(C(F)(F)F)cc2)nc1C(C)c1cccc(C(F)(F)F)c1 (racemic) [Compound 19]
[1]; [21]
  Plant response rating, Rice: 0
[1]; [22]
  Plant response rating, Rice: 0
[1]; [23]
  Plant response rating, Rice: 2
[2]; [21]
  Plant response rating, Barnyardgrass: 0
[2]; [22]
  Plant response rating, Barnyardgrass: 2
[2]; [23]
  Plant response rating, Barnyardgrass: 3
[3]; [21]
  Plant response rating, S. Flatsedge: 0
[3]; [22]
  Plant response rating, S. Flatsedge: 2
[3]; [23]
  Plant response rating, S. Flatsedge: 6
[4]; [21]
  Plant response rating, Ducksalad: 0
[4]; [22]
  Plant response rating, Ducksalad: 2
[4]; [23]
  Plant response rating, Ducksalad: 7
[5]; Rate 62 g/ha, Postemergence
  Plant response rating, Crabgrass: 1
[5]; Rate 62 g/ha, Preemergence
  Crabgrass plant response rating: 0
[5]; Rate 125 g/ha, Postemergence
  Plant response rating, Crabgrass: 2
[5]; Rate 125 g/ha, Preemergence
  Crabgrass plant response rating: 0
[5]; Rate 250 g/ha, Postemergence
  Plant response rating, Crabgrass: 2
[5]; Rate 250 g/ha, Preemergence
  Plant response rating, Crabgrass: 0
[6]; Rate 62 g/ha, Postemergence
  Plant response rating, B. signalgrass: 1
[6]; Rate 62 g/ha, Preemergence
  B. signalgrass plant response rating: 0
[6]; Rate 125 g/ha, Postemergence
  Plant response rating, B. signalgrass: 2
[6]; Rate 125 g/ha, Preemergence
  B. signalgrass plant response rating: 0
[6]; Rate 250 g/ha, Postemergence
  Plant response rating, B. signalgrass: 2
[6]; Rate 250 g/ha, Preemergence
  Plant response rating, B. signalgrass: 0
[7]; Rate 62 g/ha, Postemergence
  Plant response rating, Morningglory: 3
[7]; Rate 62 g/ha, Preemergence
  Morningglory plant response rating: 0
[7]; Rate 125 g/ha, Postemergence
  Plant response rating, Morningglory: 3
[7]; Rate 125 g/ha, Preemergence
  Morningglory plant response rating: 0
[7]; Rate 250 g/ha, Postemergence
  Plant response rating, Morningglory: 6
[7]; Rate 250 g/ha, Preemergence
  Plant response rating, Morningglory: 0
[8]; Rate 62 g/ha, Postemergence
  Plant response rating, Sugarbeets: 2
[8]; Rate 62 g/ha, Preemergence
  Sugarbeets plant response rating: 0
[8]; Rate 125 g/ha, Postemergence
  Plant response rating, Sugarbeets: 4
[8]; Rate 125 g/ha, Preemergence
  Sugarbeets plant response rating: 0
[8]; Rate 250 g/ha, Postemergence
  Plant response rating, Sugarbeets: 6
[8]; Rate 250 g/ha, Preemergence
  Plant response rating, Sugarbeets: 0
[9]; Rate 62 g/ha, Postemergence
  Plant response rating, Corn: 1
[9]; Rate 62 g/ha, Preemergence
  Corn plant response rating: 0
[9]; Rate 125 g/ha, Postemergence
  Plant response rating, Corn: 2
[9]; Rate 125 g/ha, Preemergence
  Corn plant response rating: 0
[9]; Rate 250 g/ha, Postemergence
  Plant response rating, Corn: 3
[9]; Rate 250 g/ha, Preemergence
  Plant response rating, Corn: 0
[10]; Rate 62 g/ha, Postemergence
  Plant response rating, Wheat: 0
[10]; Rate 62 g/ha, Preemergence
  Wheat plant response rating: 0
[10]; Rate 125 g/ha, Postemergence
  Plant response rating, Wheat: 0
[10]; Rate 125 g/ha, Preemergence
  Wheat plant response rating: 0
[10]; Rate 250 g/ha, Postemergence
  Plant response rating, Wheat: 0
[10]; Rate 250 g/ha, Preemergence
  Plant response rating, Wheat: 0
[11]; Rate 62 g/ha, Postemergence
  Plant response rating, Bedstraw: 2
[11]; Rate 62 g/ha, Preemergence
  Bedstraw plant response rating: 0
[11]; Rate 125 g/ha, Postemergence
  Plant response rating, Bedstraw: 3
[11]; Rate 125 g/ha, Preemergence
  Bedstraw plant response rating: 0
[11]; Rate 250 g/ha, Postemergence
  Plant response rating, Bedstraw: 3
[11]; Rate 250 g/ha, Preemergence
  Plant response rating, Bedstraw: 0
[12]; Rate 62 g/ha, Postemergence
  Plant response rating, Nutsedge: 0
[12]; Rate 62 g/ha, Preemergence
  Nutsedge plant response rating: 0
[12]; Rate 125 g/ha, Postemergence
  Plant response rating, Nutsedge: 0
[12]; Rate 125 g/ha, Preemergence
  Nutsedge plant response rating: 0
[12]; Rate 250 g/ha, Postemergence
  Plant response rating, Nutsedge: 0
[12]; Rate 250 g/ha, Preemergence
  Plant response rating, Nutsedge: 0
[13]; Rate 62 g/ha, Postemergence
  Plant response rating, Wild oats: 0
[13]; Rate 62 g/ha, Preemergence
  Wild oats plant response rating: 0
[13]; Rate 125 g/ha, Postemergence
  Plant response rating, Wild oats: 1
[13]; Rate 125 g/ha, Preemergence
  Wild oats plant response rating: 0
[13]; Rate 250 g/ha, Postemergence
  Plant response rating, Wild oats: 2
[13]; Rate 250 g/ha, Preemergence
  Plant response rating, Wild oats: 0
[14]; Rate 62 g/ha, Postemergence
  Plant response rating, Rape: 2
[14]; Rate 62 g/ha, Preemergence
  Rape plant response rating: 0
[14]; Rate 125 g/ha, Postemergence
  Plant response rating, Rape: 2
[14]; Rate 125 g/ha, Preemergence
  Rape plant response rating: 0
[14]; Rate 250 g/ha, Postemergence
  Plant response rating, Rape: 3
[14]; Rate 250 g/ha, Preemergence
  Plant response rating, Rape: 0
[15]; Rate 62 g/ha, Postemergence
  Plant response rating, Soybean: 2
[15]; Rate 62 g/ha, Preemergence
  Soybean plant response rating: 0
[15]; Rate 125 g/ha, Postemergence
  Plant response rating, Soybean: 3
[15]; Rate 125 g/ha, Preemergence
  Soybean plant response rating: 0
[15]; Rate 250 g/ha, Postemergence
  Plant response rating, Soybean: 4
[15]; Rate 250 g/ha, Preemergence
  Plant response rating, Soybean: 0
[16]; Rate 62 g/ha, Postemergence
  Plant response rating, Blackgrass: 1
[16]; Rate 62 g/ha, Preemergence
  Blackgrass plant response rating: 0
[16]; Rate 125 g/ha, Postemergence
  Plant response rating, Blackgrass: 1
[16]; Rate 125 g/ha, Preemergence
  Blackgrass plant response rating: 0
[16]; Rate 250 g/ha, Postemergence
  Plant response rating, Blackgrass: 1
[16]; Rate 250 g/ha, Preemergence
  Plant response rating, Blackgrass: 0
[17]; Rate 62 g/ha, Postemergence
  Plant response rating, Cocklebur: 2
[17]; Rate 62 g/ha, Preemergence
  Cocklebur plant response rating: 0
[17]; Rate 125 g/ha, Postemergence
  Plant response rating, Cocklebur: 3
[17]; Rate 250 g/ha, Postemergence
  Plant response rating, Cocklebur: 3
[17]; Rate 250 g/ha, Preemergence
  Plant response rating, Cocklebur: 0
[18]; Rate 62 g/ha, Postemergence
  Plant response rating, Giant foxtail: 0
[18]; Rate 62 g/ha, Preemergence
  Giant foxtail plant response rating: 0
[18]; Rate 125 g/ha, Postemergence
  Plant response rating, Giant foxtail: 0
[18]; Rate 125 g/ha, Preemergence
  Giant foxtail plant response rating: 0
[18]; Rate 250 g/ha, Postemergence
  Plant response rating, Giant foxtail: 1
[18]; Rate 250 g/ha, Preemergence
  Plant response rating, Giant foxtail: 0
[19]; Rate 62 g/ha, Postemergence
  Plant response rating, Velvetleaf: 1
[19]; Rate 62 g/ha, Preemergence
  Velvetleaf plant response rating: 0
[19]; Rate 125 g/ha, Postemergence
  Plant response rating, Velvetleaf: 2
[19]; Rate 125 g/ha, Preemergence
  Velvetleaf plant response rating: 0
[19]; Rate 250 g/ha, Postemergence
  Plant response rating, Velvetleaf: 2
[19]; Rate 250 g/ha, Preemergence
  Plant response rating, Velvetleaf: 0
[20]; Rate 62 g/ha, Postemergence
  Plant response rating, Redroot pigweed: 2
[20]; Rate 62 g/ha, Preemergence
  Redroot pigweed plant response rating: 0
[20]; Rate 125 g/ha, Postemergence
  Plant response rating, Redroot pigweed: 5
[20]; Rate 125 g/ha, Preemergence
  Redroot pigweed plant response rating: 0
[20]; Rate 250 g/ha, Postemergence
  Plant response rating, Redroot pigweed: 7
[20]; Rate 250 g/ha, Preemergence
  Plant response rating, Redroot pigweed: 0
